Source: patent US11098056B2, “UDP glycosyltransferase inhibitors and methods of use” (GENZYME CORPORATION, priority 2018, dated 2021)

Experiments:
UGT8 [1] = target: T1, UGT8 (Mus musculus, UniProt Q64676); assay: Acute in vivo target engagement in neonatal mouse brain: inhibition of de novo GalCer and SFT synthesis (13C-Gal incorporation); conditions: neonatal mouse (P14-P21) brain, 5 hr
T1 construct: Groups of 5 male C57Bl/6 mice, 6-9 wks of age (Charles River Laboratories); tissue Charles River Laboratories; host or cells: mouse kidney (adult C57Bl/6) and mid-/hind brain (neonatal P14-P21 mice)
T1 sequence (Q64676 21-541): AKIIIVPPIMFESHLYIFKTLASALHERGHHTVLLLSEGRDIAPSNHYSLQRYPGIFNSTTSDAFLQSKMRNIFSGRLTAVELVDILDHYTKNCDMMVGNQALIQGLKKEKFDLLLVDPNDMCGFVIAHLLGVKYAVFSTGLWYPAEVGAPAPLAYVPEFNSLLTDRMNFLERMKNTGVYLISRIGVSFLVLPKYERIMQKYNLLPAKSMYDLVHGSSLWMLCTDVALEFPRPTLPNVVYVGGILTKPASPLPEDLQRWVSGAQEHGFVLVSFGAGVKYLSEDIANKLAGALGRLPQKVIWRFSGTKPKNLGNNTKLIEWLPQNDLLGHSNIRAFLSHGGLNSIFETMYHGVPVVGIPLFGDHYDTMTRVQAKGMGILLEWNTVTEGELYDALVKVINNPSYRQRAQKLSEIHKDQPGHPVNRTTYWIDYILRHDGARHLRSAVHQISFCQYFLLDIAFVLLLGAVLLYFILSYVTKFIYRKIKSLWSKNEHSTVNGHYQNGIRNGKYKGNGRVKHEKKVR
Excerpt: SFT biosynthesis and turnover in the myelin of adult mice is very low, necessitating development of a short-term acute model of de novo synthesis inhibition. To do this, we took advantage of the fact that unlike primates in which most developmental myelination occurs in utero, in rodents, peak myelination occurs between postnatal day 14 (P14) and P22.
Groups of 5 neonatal mice age-matched between P14 and P21 received test article formulated in a clinically-acceptable formulation, administered by oral gavage; the control group received vehicle alone. One hr after administration of test article, animals received an i.p. injection of 13C-Gal (3 g/kg); 5 hr after administration of test article, animals were euthanized, brains were removed and dissected for recovery of mid- and hind brain which was snap-frozen and stored at −80° C. until analysis. Plasma samples were also collected for test article exposure analysis.
(§1) Mass Spectrometer Analysis of SFT
(§2) Quantitative analysis of sphingolipids (SLs) was performed using liquid chromatography with tandem mass spectrometry analysis (LC-MS/MS). Briefly, to extract glucosylceramide (GlcCer), galactosylceramide (GalCer), and sulfatide (ST), an aliquot of 10 μL of mouse tissue homogenate (100 mg/ml in water) was mixed with 1 mL of extraction solution (0.2% Formic Acid; 5 mM Ammonium formate in (50:50) Methanol:Acetonitrile (v/v) with internal standards (IS)). C17-ST and D35 labeled C18-GalCer were used for IS. The mixtures were vortexed and centrifuged. The resulting supernatants were transferred to HPLC vials for LC-MS/MS analysis. GlcCer and GalCer were separated using a Waters Acquity UPLC and Atlantis HILIC Silica column (2.1 mm×150 mm, […], Waters Corp., Milford, Mass.) and analyzed by an API 5000 triple quadrupole mass spectrometer in MRM mode (Applied Biosystems, Foster City, Calif.). ST were analyzed using a Waters Acquity UPLC and BEH C18 column (2.1 mm×50 mm, […], Waters Corp., Milford, Mass.) and analyzed by an API 6500 triple quadrupole mass spectrometer in MRM mode (Applied Biosystems, Foster City, Calif.).

UGT8 [2] = target: T2, UGT8 (Homo sapiens, UniProt Q16880); assay: In vitro sulfatide (SFT) synthesis inhibition in OE19 cells, LC-MS/MS readout; format: cell-based; conditions: 72 hr, sulfatide by LC-MS/MS, read-out: Potency range (IC50, In-vitro SFT)
T2 construct: host or cells: OE19 cells
T2 sequence (Q16880 21-541): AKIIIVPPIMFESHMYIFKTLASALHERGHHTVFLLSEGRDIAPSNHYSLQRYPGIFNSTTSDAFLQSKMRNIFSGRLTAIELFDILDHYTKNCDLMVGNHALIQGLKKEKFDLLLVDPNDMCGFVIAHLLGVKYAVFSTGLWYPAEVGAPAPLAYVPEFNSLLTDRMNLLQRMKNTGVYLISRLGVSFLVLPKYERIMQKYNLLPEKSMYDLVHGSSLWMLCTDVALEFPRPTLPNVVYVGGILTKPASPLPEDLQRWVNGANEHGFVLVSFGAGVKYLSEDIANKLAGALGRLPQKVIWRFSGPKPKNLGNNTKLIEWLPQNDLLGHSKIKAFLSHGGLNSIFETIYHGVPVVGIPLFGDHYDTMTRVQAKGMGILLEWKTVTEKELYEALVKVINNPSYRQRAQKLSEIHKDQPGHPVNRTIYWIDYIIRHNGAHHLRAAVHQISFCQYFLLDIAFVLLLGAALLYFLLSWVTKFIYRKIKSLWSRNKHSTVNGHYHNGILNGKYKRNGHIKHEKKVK
How it was run: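 OE19 cells, 2,500/well, exposed to compound dose-downs in triplicate for 72 hr at 37° C (screening at 10 μM final). Sulfatide quantified by LC-MS/MS (C8 UPLC, isocratic, negative-ion MRM) with C17 SFT internal standard; IC50 from concentration-response curves.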

UGT8 [3] = target: T1, UGT8; assay: Acute in vivo target engagement in mouse kidney: inhibition of de novo GalCer and SFT synthesis (13C-Gal incorporation); conditions: 5 hr
Protocol: In vivo target engagement was initially assessed in an adult mouse kidney model assessing de novo synthesis inhibition. This model was selected because the high rate of GalCer and SFT synthesis and turnover in kidney facilitated development of an acute one-day model assessing the effect of a single administration of compound at different doses. Inhibition of de novo synthesis was determined by measuring the amount of 13C6 galactose (13C-Gal; CIL, cat #CLM-1570-pk) incorporated into GalCer and SFT.
Groups of 5 male C57Bl/6 mice, 6-9 wks of age (Charles River Laboratories) were maintained in an ALAAC-accredited vivarium with food and water ad libitum and were allowed to acclimate one week before initiating studies. Three to 5 dose groups received test article formulated in a clinically-acceptable formulation, administered by oral gavage; the control group received vehicle alone. One hr after administration of test article, animals received an intraperitoneal (i.p.) injection of 13C-Gal (3 g/kg); 5 hr after administration of test article, animals were euthanized and a kidney was removed and divided into two longitudinal samples that were snap-frozen and stored at −80° C. until processing for test article tissue exposure and lipid analysis (GalCer and SFT). Typically, brain and plasma samples were also collected for test article exposure.
as §1, §2

brain GalCer % inh (UGT8 [1]; single oral dose 3 mg/kg)	brain Sulfatide % inh (UGT8 [1]; single oral dose 3 mg/kg)	brain GalCer % inh (UGT8 [1]; single oral dose 10 mg/kg)	brain Sulfatide % inh (UGT8 [1]; single oral dose 10 mg/kg)	IC50 (UGT8 [2])	kidney GalCer % inh (UGT8 [3]; single oral dose 1 mg/kg)	kidney Sulfatide % inh (UGT8 [3]; single oral dose 1 mg/kg)	kidney GalCer % inh (UGT8 [3]; single oral dose 3 mg/kg)	kidney Sulfatide % inh (UGT8 [3]; single oral dose 3 mg/kg)	kidney GalCer % inh (UGT8 [3]; single oral dose 10 mg/kg)	kidney Sulfatide % inh (UGT8 [3]; single oral dose 10 mg/kg)	kidney GalCer % inh (UGT8 [3]; single oral dose 30 mg/kg)	kidney Sulfatide % inh (UGT8 [3]; single oral dose 30 mg/kg)	brain GalCer % inh (UGT8 [1]; single oral dose 30 mg/kg)	brain Sulfatide % inh (UGT8 [1]; single oral dose 30 mg/kg)	Compound	also measured
B (40% < B < 80%)	B (40% < B < 80%)	A (A > 80%)	A (A > 80%)	< 100 nM	C (C < 40%)	C (C < 40%)	C (C < 40%)	C (C < 40%)	B (40% < B < 80%)	B (40% < B < 80%)	A (A > 80%)	A (A > 80%)			CNC(=O)c1csc2c(C(F)(F)F)cc(O[C@@H]3CCN(C(=O)OCCOC(F)(F)F)[C@H](C)C3)nc12 [Example 375, 2-(Trifluoromethoxy)ethyl (2R,4R)-2-methyl-4-((3-(methylcarbamoyl)-7-(trifluoromethyl)thieno[3,2-b]pyridin-5-yl)oxy)piperidine-1-carboxylate]	brain GalCer % inh (UGT8 [1]; single oral dose 1 mg/kg): B (40% < B < 80%); brain Sulfatide % inh (UGT8 [1]; single oral dose 1 mg/kg): B (40% < B < 80%); kidney GalCer % inh (UGT8 [3]; single oral dose 100 mg/kg): A (A > 80%); kidney Sulfatide % inh (UGT8 [3]; single oral dose 100 mg/kg): A (A > 80%)
		A, A, A (A > 80%)	A, A, A (A > 80%)	< 100 nM			C (C < 40%)	C (C < 40%)	C (C < 40%)	B (40% < B < 80%)			A, A, A (A > 80%)	A, A, A (A > 80%)	CNC(=O)c1csc2c(C(F)(F)F)cc(N3CCC(OC(=O)NC4CC4)CC3)nc12 [Example 473, 1-(3-(Methylcarbamoyl)-7-(trifluoromethyl)thieno[3,2-b]pyridin-5-yl)piperidin-4-yl cyclopropylcarbamate]	brain GalCer % inh (UGT8 [1]; single oral dose 100 mg/kg): A, A, A (A > 80%); brain Sulfatide % inh (UGT8 [1]; single oral dose 100 mg/kg): A, A, A (A > 80%); kidney GalCer % inh (UGT8 [3]; single oral dose 50 mg/kg): B (40% < B < 80%); kidney Sulfatide % inh (UGT8 [3]; single oral dose 50 mg/kg): A (A > 80%)
A, A, A (A > 80%)	A, A, A (A > 80%)	A, A, A (A > 80%)	A, A, A (A > 80%)	< 100 nM	C (C < 40%)	B (40% < B < 80%)	A (A > 80%)	A (A > 80%)	A (A > 80%)	A (A > 80%)	A (A > 80%)	A (A > 80%)	A, A, A (A > 80%)	A, A, A (A > 80%)	CNC(=O)c1csc2c(C(F)(F)F)cc(N3CCC(OC(=O)N[C@@H](C)COC(F)(F)F)CC3)nc12 [Example 90, 1-(3-(Methylcarbamoyl)-7-(trifluoromethyl)thieno[3,2-b]pyridin-5-yl)piperidin-4-yl (S)-(1-(trifluoromethoxy)propan-2-yl)carbamate]	kidney GalCer % inh (UGT8 [3]; single oral dose 0.3 mg/kg): C (C < 40%); kidney Sulfatide % inh (UGT8 [3]; single oral dose 0.3 mg/kg): C (C < 40%)
